One assay deals with oestrogen receptor. Briefly: Oestrogenic effects of steroid sapogenin compounds. From the text:
In identifying compounds that would have use in the treatment of SDAT and other diseases characterised by reductions in receptor numbers or synaptic transmission, the inventors have given consideration to the need to identify compounds that would have the desired effect but would be devoid of any oestrogenic effects, as these would be unacceptable, particularly in male patients. A number of the compounds claimed to have activity in patent application DE 4303214A1 have marked oestrogenic activity and are therefore unacceptable.
In addition these compounds were tested at other steroid receptors as it was considered that compounds that would be of clinical sue should have no effects at the other steroid receptors.

For assay [1], the system named is m2 receptors on CHO cells. Briefly: Expression of m2 receptors on transfected CHO cells (tritiated QNB binding). The format is cell-based. The conditions noted are these: DMSO control. The method, then: 1. Chinese hamster ovary (CHO) cells transfected with the a DNA fragment coding for a muscarinic receptor. The cell line used for the majority of the experiments was a cell line expressing the m2 receptor.
The effects of various compounds on the expression of m2 receptors on CHO cells transfected with DNA for the m2 receptor were investigated. Receptor numbers were assayed using tritiated QNB binding and subtracting non-specific binding. Compounds were dissolved in DMSO and DMSO was used as a control. Compounds were tested at a range of final concentrations. Compounds were also tested in the presence and absence of tamoxifen to try to distinguish an oestrogen receptor mediated mechanism.

In assay [2] the test system is muscarinic receptors on cultured cardiac muscle cells. The assay is described as follows: Muscarinic receptor expression on cultured neonatal cardiac muscle cells (tritiated QNB). The format is cell-based, Sprague Dawley rats. The method, then: 3. Cultured cardiac muscle cells obtained from neonatal Sprague Dawley rats. The cardiac muscle cells express muscarinic receptors, typically m2. The level of these receptors falls on prolonged culture and the effects of compounds of interest in preventing the fall in receptor numbers was investigated.
Cardiac muscle cells were isolated from the ventricular muscle of neonatal Sprague Dawley rats using standard techniques. Cells were cultured in vitro and muscarinic receptor numbers expressed on cell surfaces membrane fragments after homogenisation of cells harvested at various time points were estimated using specific binding of tritiated QNB. […] The experiments were therefore designed to investigate the effects of the various compounds in inhibiting this decline in receptor numbers.

The test system of a further assay is m1 receptor mRNA. Briefly: m1 receptor mRNA levels in brain by in situ hybridisation. The format is in vivo, SD rats. To be noted: for m1 receptor mRNA, comparison SaG vs Aged: 3 mg sarsasapogenin per rat per day in feed, four months, positive means increased. How it is done: 20 months old pure-line male SD rats were divided randomly into 2 groups. One group received an average of 3 mg of sarsasapogenin per rat per day mixed into the daily feed. The control group received normal food and water. Four months later, their brains were used in hybridisation technique experiments, with 4 to 6 months old rats used as a young control group. Other feeding arrangements for each group were completely identical.
A cDNA chain which respectively corresponds to the maNA of both m1 and m2 was synthesised, m1 corresponds to the 3-18 amino acid sequence of receptor protein, i.e. TGGTGCCAAGACAGTGATGTTGGGACTGACAGCAGGGGGCACTGAGGT, and M2 to the 1-16 amino acid sequence, i.e. ATGAATAACTCAACAAACTCCTCGAACAATGGCTTGGCTATTACCAGT. The cDNA was labelled using a 3′-terminal-label reagent kit with a-^35S-dATP (8.9 TBq/mmol) as the label material. After the reaction had finished, it was purified with a nucleotide column. The specific activity of the batch was estimated (16.67-33.34)×108 MBq/μg. a-^35S-dATP, 3′-terminal-label reagent kit and nucleotide column were obtained from Du Pont Co., USA.
One rat was obtained from each group each time and parallel experiments were performed. The rats were decapitated and their brains removed intact. 15 μm thick coronal slices were prepared in a constantly freezing cryo-microtome (AS-600 cryo-microtome, Anglia Scientific Co, UK). Slices were taken from different areas (identical places for each rat) and were mounted on slides smeared with polylysine, dried in a cool current of air, fixed in a solution of 4% paraformaldehyde (containing 1×phosphate buffer saline (PBS), pH 7.0) for 5 minutes before being washed twice in PBS. They were then placed in 0.25% acetic anhydride solution (containing 0.1 M triethanolamine hydrochloride, Ph 8.0, and 0.9% sodium chloride) for 10 minutes, dehydrated in 70%, 80%, 95%, and 100% ethyl alcohol for 1 minute, degreased in chloroform for 5 minutes, and finally treated in 100% and 95% ethyl alcohol for 1 minute successively.
Slices used as negative controls were taken and dehydrated in ethyl alcohol etc. as detailed above, but treated in advance in 100 mg m1 RNase and 2×SSC solution (salt/sodium citrate solution containing 300 mmol/L sodium chloride and […] sodium citrate) for 2 hours at 37° C. […]
Autoradiographs were prepared in a dark room, the specimen and the hyperfilm beta max being pressed together using the contact method and placed in a cassette with a desiccant, exposed at 4° C. for 2 to 3 weeks. […] Finally, the autoradiographs were analysed using a computerised image analyser (VIDAS imaging analyser, Kontron, Germany).

For assay [3], the system named is known steroidal receptors. The assay is described as follows: Binding to known steroidal receptors.
Assay [4] has as its system major known classes of membrane bound receptor. Briefly: Direct binding to major known classes of membrane bound receptor. From the text: Thus it can be postulated that the observed effects are probably not due to for instance an effect at the nicotinic receptor and a consequential increase in the number of muscarinic receptors. This explanation appears to be even less plausible (although it cannot be excluded) if one considers that certain of the compounds have also been shown by the inventors to increase the number of beta adrenergic receptors expressed on peripheral blood lymphocytes. Thus the mechanism would appear to be one which has a more general effect on the regulation of membrane bound receptors.

For the next assay, the system named is M1 cholinergic receptors. To be noted: Chinese Patent No. CN1096031A; cited from earlier work.
A further assay relates to β-adrenergic receptors. To be noted: Chinese Patent No. CN1096031A; cited from earlier work.
Where [5] appears, read: Molar concentration of compound 10^−5.

Several values for one entry are separate records, joined by “and”; a condition that tells them apart may be missing. Equal entries are not always repeated.

For `C[C@@H]1CC[C@@]2(OC1)O[C@H]1C[C@H]3[C@@H]4C[C@@H](O)[C@@]5(O)C[C@@H](O)CC[C@]5(C)[C@H]4CC[C@]3(C)[C@H]1[C@@H]2C` [Anzurogenin D], in the assay on oestrogen receptor, the “Oestrogenic Activity” value was “Negative”. The “Effect on receptor expression—given as % increase compared to control (negative values in brackets)” value in assay [1] (setting [5]) amounted to 22%. Moreover, the “Concentration of compound causing a significant increase in number of receptors expressed on neonatal cardiac muscle after 10 days in vitro culture” value in assay [2] is listed as 10^−6 M.

With `C[C@@H]1CC[C@@]2(OC1)O[C@H]1C[C@H]3[C@@H]4CC=C5C[C@@H](O)CC[C@]5(C)[C@H]4CC[C@]3(C)[C@H]1[C@@H]2C` [Diosgenin], the “Oestrogenic Activity” value in the assay on oestrogen receptor is on record as “Positive”.

Regarding `C[C@@H]1CC[C@@]2(OC1)O[C@H]1C[C@H]3[C@@H]4CC=C5C[C@@H](O)C[C@@H](O)[C@]5(C)[C@H]4CC[C@]3(C)[C@H]1[C@@H]2C` [Ruscogenin], in the assay with oestrogen receptor, the “Oestrogenic Activity” value is “Positive”.

In the case of Astragaloside, in the assay on oestrogen receptor, the “Oestrogenic Activity” value is reported as “Negative”. Moreover, the “Concentration of compound causing a significant increase in number of receptors expressed on neonatal cardiac muscle after 10 days in vitro culture” value in assay [2] is reported as 10^−5 M.

Take Sarsasapogenin: in the assay on oestrogen receptor, the “Oestrogenic Activity” value is reported as “Negative”. The “Effect on receptor expression—given as % increase compared to control (negative values in brackets)” value in assay [1] (setting [5]) is listed as 34%. In addition, the “Concentration of compound causing a significant increase in number of receptors expressed on neonatal cardiac muscle after 10 days in vitro culture” value in assay [2] is recorded as 10^−5 M. The “m1 receptor mRNA, comparison SaG vs Aged” value in the assay with m1 receptor mRNA (Cortex) is 5.77 ± 3.82 (20); in the assay on m1 receptor mRNA (Hippocampus), 0.96 ± 4.26 (10); in the assay with m1 receptor mRNA (Striatum, p < 0.01, listed as SaG), “significant increase and 15.71 ± 3.27 (10)”. For the same molecule, the “levels of M receptor mRNA” value with m1 receptor mRNA (rats treated with SaG) is on record as “raised”. For the same molecule, the “binding to known steroidal receptors” value in assay [3] is “do not bind”. The “direct binding to membrane bound receptors” value in assay [4] is given as “not to bind directly”. In addition, the “regulation of M1 cholinergic receptors” value in the assay on M1 cholinergic receptors was “up-regulate”. Moreover, in the assay with β-adrenergic receptors, the “regulation of β-adrenergic receptors” value was “down-regulate”.

As for Smilagenin, in the assay with oestrogen receptor, the “Oestrogenic Activity” value is recorded as “Negative”. The “Effect on receptor expression—given as % increase compared to control (negative values in brackets)” value in assay [1] (setting [5]) was 57%; in assay [1] (Molar concentration of compound 10^−6) it was 18%. For the same molecule, the “Concentration of compound causing a significant increase in number of receptors expressed on neonatal cardiac muscle after 10 days in vitro culture” value in assay [2] is listed as 10^−6 M.

As for Tigogenin, the “Oestrogenic Activity” value in the assay on oestrogen receptor is reported as “Negative”.

Values taken from patent US6812213B2, “Steroidal sapogenins and their derivatives for treating alzheimer's disease” (Phytopharm, plc, priority 1998, dated 2004).
